Assay [1] addresses T1, Cytochrome P450 2C9 (Homo sapiens, UniProt P11712). In words: Binding affinity was measured on Cytochrome P450 2C9. It counts as ADME.
Assay [2] concerns the target T1, Cytochrome P450 2C9. In words: Binding affinity measured on human cytochrome P450 2C9 (CYP2C9) enzyme.
Assay [3] deals with T1, Cytochrome P450 2C9. The experiment in a line: Binding affinity for human Cytochrome P450 2C9. It counts as ADME.

The values below come from ChEMBL document CHEMBL1133779, “A refined 3-dimensional QSAR of cytochrome P450 2C9: computational predictions of drug interactions” (J Med Chem, 2000).

By Ki is commonly meant the equilibrium dissociation constant of an inhibitor or competing ligand from its target. Lower therefore signals a stronger hold on the target.

T1 sequence (P11712 whole entry): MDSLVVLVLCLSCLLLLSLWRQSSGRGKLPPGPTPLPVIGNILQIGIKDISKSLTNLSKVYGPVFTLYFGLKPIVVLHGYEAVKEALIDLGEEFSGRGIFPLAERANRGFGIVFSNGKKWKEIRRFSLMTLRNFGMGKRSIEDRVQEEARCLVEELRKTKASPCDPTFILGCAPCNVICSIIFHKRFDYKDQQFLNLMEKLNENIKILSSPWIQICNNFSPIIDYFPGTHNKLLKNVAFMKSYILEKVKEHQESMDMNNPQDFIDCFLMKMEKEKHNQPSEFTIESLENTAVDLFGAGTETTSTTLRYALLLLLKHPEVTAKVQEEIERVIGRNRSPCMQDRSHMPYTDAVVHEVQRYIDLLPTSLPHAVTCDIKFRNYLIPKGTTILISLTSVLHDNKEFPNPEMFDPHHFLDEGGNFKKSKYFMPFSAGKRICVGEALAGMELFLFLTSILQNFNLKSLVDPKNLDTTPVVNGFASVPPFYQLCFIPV

Turning to `CO[C@@]1(C)C[C@@H](c2ccccc2)c2c(c3ccccc3oc2=O)O1` (stereo in doubt; 4), on Cytochrome P450 2C9 [1], affinity was put at a Ki of 7 µM.

Turning to `CC(C(=O)O)c1ccc(C(=O)c2cccs2)cc1` (stereo unspecified) [SUPROFEN], the Ki on Cytochrome P450 2C9 [2] worked out at 45 µM. For `C#Cc1ccc2oc(O)c(C(C(C)=O)c3ccccc3)c(=O)c2c1` (stereo unspecified), on Cytochrome P450 2C9 [1], the Ki was determined as 1.5 µM. This lies in the single-digit micromolar range. Same read-out and setting: next, `COc1c([C@H](CC(C)=O)c2ccccc2)c(=O)oc2ccccc12` (stereo in doubt; 15): 2.4 µM; `CO[C@@]1(C)C[C@@H](c2ccccc2)c2c(c3ccccc3oc2=O)O1` (stereo in doubt; 6): 1.1 µM; `CC[C@H](c1ccccc1)c1c(O)oc2ccccc2c1=O` (stereo in doubt; 9): 18 µM. For `Cc1ccc(C)c(OCC(C)(C)C(=O)O)c1`, the affinity on Cytochrome P450 2C9 [2] corresponds to a Ki of 15 µM. Still for that read-out and setting: next, `O=S(=O)(Nc1ccnn1-c1ccccc1)c1ccc(O)cc1`: 6 µM.

As for `CC1(O)C[C@H](c2ccccc2)c2c(c3ccccc3oc2=O)O1` (stereo partly specified), at Cytochrome P450 2C9 [1], affinity was put at a Ki of 7 µM. Molecule `CC(=O)c1ccc(S(=O)(=O)Nc2ccnn2-c2ccccc2)cc1` yielded a Ki at Cytochrome P450 2C9 [2] of 2.4 µM. That is a single-digit micromolar value. Still for that read-out and setting: with `C#Cc1ccc(S(=O)(=O)NC(=O)Nc2ccccc2)cc1` the figure was 7 µM. As to `[N-]=[N+]=Nc1ccc(S(=O)(=O)Nc2ccnn2-c2ccccc2)cc1`, the Ki on Cytochrome P450 2C9 [1] was found to be 0.4 µM. For the molecule `C#Cc1ccc(S(=O)(=O)Nc2cc(C)on2)cc1`, the Ki at Cytochrome P450 2C9 [2] was 3 µM. `CC[C@H](c1ccccc1)c1c(OC)oc2ccccc2c1=O` gave a Ki on Cytochrome P450 2C9 [1] of 14 µM. In turn, `O=C(O)Cc1ccccc1Nc1cc(Cl)ccc1Cl` displayed a Ki on Cytochrome P450 2C9 [2] of 2 µM. That is a single-digit micromolar value. `COc1oc2ccccc2c(=O)c1[C@@H](CC(C)=O)c1ccccc1` registered a Ki on Cytochrome P450 2C9 [2] of 21 µM.

In turn, `COc1oc2ccccc2c(=O)c1[C@H](CC(C)=O)c1ccccc1` displayed a Ki at Cytochrome P450 2C9 [3] of 29 µM.

Take `CO[C@]1(C)C[C@@H](c2ccccc2)c2c(c3ccccc3oc2=O)O1`: the affinity on Cytochrome P450 2C9 [1], expressed as Ki, was 20 µM. The same measure, in the same setting: with `C[C@@H](O)C[C@H](c1ccccc1)c1c(O)oc2ccccc2c1=O` the figure was 3 µM. In turn, `C#Cc1ccc(S(=O)(=O)NC(=O)NCc2ccccc2)cc1` displayed a Ki on Cytochrome P450 2C9 [2] of 25 µM. That is a double-digit micromolar value.

At Cytochrome P450 2C9 [1], `C#Cc1ccc2c(=O)c(C(C(C)=O)c3ccccc3)c(O)oc2c1` (stereo unspecified) displayed an inhibitory constant (Ki) of 1.1 µM. `C#Cc1ccc(C2(c3ccccc3)NC(=O)NC2=O)cc1` (stereo unspecified): the Ki on Cytochrome P450 2C9 [2] worked out at 18 µM. Same read-out and setting: next, `C#Cc1ccc(S(=O)(=O)NC(=O)NCC(C)C)cc1`: 48 µM.

Take `C[C@H](O)C[C@@H](c1ccccc1)c1c(O)oc2ccccc2c1=O`: affinity at Cytochrome P450 2C9 [1] was put at a Ki of 3 µM. The same measure, in the same setting: next, `C[C@@H](O)C[C@@H](c1ccccc1)c1c(O)oc2ccccc2c1=O`: 0.1 µM; `CO[C@@]1(C)C[C@H](c2ccccc2)c2c(c3ccccc3oc2=O)O1`: 1.5 µM; `CC[C@H](c1ccccc1)c1c(O)oc2ccccc2c1=O` (stereo in doubt; 8): 0.5 µM. Turning to `O=S(=O)(Nc1ccnn1-c1ccccc1)c1ccccc1`, at Cytochrome P450 2C9 [2], the Ki stood at 2 µM.

Turning to `CC[C@H](c1ccccc1)c1c(OC)c2ccccc2oc1=O`, the Ki at Cytochrome P450 2C9 [1] was found to be 13 µM. For the molecule `CC[C@@H](c1ccccc1)c1c(OC)oc2ccccc2c1=O`, on Cytochrome P450 2C9 [1], the Ki stood at 0.1 µM. Compared with the last molecule, the Ki is about 130-fold lower. Same read-out and setting: with `COc1c([C@H](CC(C)=O)c2ccccc2)c(=O)oc2ccccc12` (stereo in doubt; 14) the figure was 10 µM; with `[N-]=[N+]=Nc1ccc2oc(O)c(Cc3c(O)oc4ccc(N=[N+]=[N-])cc4c3=O)c(=O)c2c1`, 3 µM. The molecule `C#Cc1ccc(S(=O)(=O)NC(=O)NCCCC)cc1` came in with an inhibition constant Ki at Cytochrome P450 2C9 [2] of 18 µM. In turn, `CC[C@@H](c1ccccc1)c1c(OC)c2ccccc2oc1=O` returned a Ki on Cytochrome P450 2C9 [1] of 6 µM. In turn, `C[C@H](O)C[C@H](c1ccccc1)c1c(O)oc2ccccc2c1=O` yielded a Ki on Cytochrome P450 2C9 [1] of 0.4 µM. On the same count and under the same terms, with `CC1(O)C[C@@H](c2ccccc2)c2c(c3ccccc3oc2=O)O1` (stereo partly specified) the figure was 25 µM.
